Experimental data taken from patent US20260022142A1, “MACROCYCLIC IMMUNOMODULATORS” (Bristol-Myers Squibb Company, priority 2022, published 2026).
Bridge positions count the residues as written; N and C are the ends. Square brackets hold non-standard residues; d marks the D form. Peptide text beside a SMILES is read from it. * marks the point of attachment. Phe(4-CONH2) = NC(=O)c1ccc(C[C@H](N)C(=O)O)cc1; Phe(4-COOH) = N[C@@H](Cc1ccc(C(=O)O)cc1)C(=O)O; Bip = N[C@@H](Cc1ccc(-c2ccccc2)cc1)C(=O)O; NH(CH2)14COOH = O=C(O)CCCCCCCCCCCCCCN*; Phe(3-Me) = Cc1cccc(C[C@H](N)C(=O)O)c1; NH(CH2)12COOH = O=C(O)CCCCCCCCCCCCN*; Val(3-OH) = CC(C)(O)[C@H](N)C(=O)O; 4Pal = N[C@@H](Cc1ccncc1)C(=O)O; Cha = N[C@@H](CC1CCCCC1)C(=O)O; Carboxymethyl = O=C(O)C*; Orn = NCCC[C@H](N)C(=O)O; Aun = NCCCCCCCCCCC(=O)O; Dab = NCC[C@H](N)C(=O)O; AEEA = NCCOCCOCC(=O)O

Biological target: T1, PD-1/PD-L1 interaction (PE-labeled human PD-L1-Ig binding to Jurkat cell line over-expressing human PD-1) (Homo sapiens, UniProt Q15116)
T1 construct: expressed in transfected cells; host or cells: Jurkat
T1 sequence (Q15116 25-288): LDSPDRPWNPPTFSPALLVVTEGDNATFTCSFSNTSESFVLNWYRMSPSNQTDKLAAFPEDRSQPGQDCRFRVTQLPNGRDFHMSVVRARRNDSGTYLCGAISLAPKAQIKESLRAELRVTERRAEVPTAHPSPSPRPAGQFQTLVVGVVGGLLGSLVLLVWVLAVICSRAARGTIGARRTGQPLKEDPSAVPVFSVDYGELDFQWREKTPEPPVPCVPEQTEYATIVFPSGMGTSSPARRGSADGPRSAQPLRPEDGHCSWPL
Assay: Jurkat-PD-1 Cell Binding High-Content Screening Assay (CBA)
Format: cell-based
Conditions: Jurkat cell line over-expressing human PD-1; PE-labeled PD-L1-Ig 20 nM final; read-out: Jurkat hPD1-PDL1 IC50
Outline: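 First, compound is added to PD-1-expressing Jurkat cells in serum-containing DMEM and left 2 h at 37° C. Next, PE-conjugated PD-L1-Ig is introduced at 20 nM final concentration for 1 hour. Finally, cells are fixed in 4% paraformaldehyde with Hoechst 33342, washed and imaged.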

Row | Compound | IC50 [nM]
1 | Cc1cccc(C[C@@H]2NC(=O)[C@H](CC(=O)O)NC(=O)[C@H](Cc3ccc(OCC(=O)O)cc3)NC(=O)[C@H](Cc3ccncc3)NC(=O)CSC[C@@H](C(=O)N[C@@H](CCN)C(=O)NCCOCCOCC(=O)NCCCCCCCCCCC(=O)O)NC(=O)[C@H](CCC(=O)O)NC(=O)[C@H](C(C)(C)O)NC(=O)[C@H](CC3CCCCC3)NC(=O)[C@H](CCN)NC(=O)[C@@H](CC(C)C)NC(=O)[C@H](CCC(N)=O)NC(=O)[C@H](Cc3ccc(C(=O)O)cc3)NC(=O)[C@H](Cc3ccc(-c4ccccc4)cc3)NC(=O)[C@H](Cc3ccc(C(=O)O)cc3)NC2=O)c1 [Compound 3748] ({CH2CO}-[4Pal]Y(Carboxymethyl)D[Phe(3-Me)][Phe(4-COOH)][Bip][Phe(4-COOH)]Q[dL][Dab][Cha][Val(3-OH)]EC[Dab][AEEA][Aun]-OH; thioether N-14) | 10.5
2 | Cc1cccc(C[C@@H]2NC(=O)[C@H](CC(=O)O)NC(=O)[C@H](Cc3ccc(C(=O)O)cc3)NC(=O)[C@H](Cc3ccncc3)NC(=O)CSC[C@@H](C(=O)N[C@@H](CCN)C(=O)NCCOCCOCC(=O)NCCCCCCCCCCC(=O)O)NC(=O)[C@H](CO)NC(=O)[C@H](C(C)(C)O)NC(=O)[C@H](CC3CCCCC3)NC(=O)[C@H](Cc3cnc[nH]3)NC(=O)[C@@H](CC(C)C)NC(=O)[C@H](CCC(N)=O)NC(=O)[C@H](Cc3ccc(OCC(=O)O)cc3)NC(=O)[C@H](Cc3ccc(-c4ccccc4)cc3)NC(=O)[C@H](Cc3ccc(OCC(=O)O)cc3)NC2=O)c1 [Compound 3749] ({CH2CO}-[4Pal][Phe(4-COOH)]D[Phe(3-Me)]Y(Carboxymethyl)[Bip]Y(Carboxymethyl)Q[dL]H[Cha][Val(3-OH)]SC[Dab][AEEA][Aun]-OH; thioether N-14) | 56.6
3 | Cc1cccc(C[C@@H]2NC(=O)[C@H](CC(=O)O)NC(=O)[C@H](Cc3ccc(C(N)=O)cc3)NC(=O)[C@H](Cc3ccncc3)NC(=O)CSC[C@@H](C(=O)N[C@@H](CCN)C(=O)NCCOCCOCC(=O)NCCCCCCCCCCC(=O)O)NC(=O)[C@H](CO)NC(=O)[C@H](C(C)(C)O)NC(=O)[C@H](CC3CCCCC3)NC(=O)[C@H](CCN)NC(=O)[C@@H](CC(C)C)NC(=O)[C@H](CCCN)NC(=O)[C@H](Cc3ccc(OCC(=O)O)cc3)NC(=O)[C@H](Cc3ccc(-c4ccccc4)cc3)NC(=O)[C@H](Cc3ccc(OCC(=O)O)cc3)NC2=O)c1 [Compound 3750] ({CH2CO}-[4Pal][Phe(4-CONH2)]D[Phe(3-Me)]Y(Carboxymethyl)[Bip]Y(Carboxymethyl)[Orn][dL][Dab][Cha][Val(3-OH)]SC[Dab][AEEA][Aun]-OH; thioether N-14) | 125
4 | Cc1cccc(C[C@@H]2NC(=O)[C@H](CC(=O)O)NC(=O)[C@H](Cc3ccc(OCC(=O)O)cc3)NC(=O)[C@H](CCN)NC(=O)CSC[C@@H](C(=O)N[C@@H](CCN)C(=O)NCCOCCOCC(=O)NCCOCCOCC(=O)NCCCCCCCCCCC(=O)O)NC(=O)[C@H](CCC(=O)O)NC(=O)[C@H](C(C)(C)O)NC(=O)[C@H](CC3CCCCC3)NC(=O)[C@H](CCN)NC(=O)[C@@H](CC(C)C)NC(=O)[C@H](CCCN)NC(=O)[C@H](Cc3ccc(OCC(=O)O)cc3)NC(=O)[C@H](Cc3ccc(-c4ccccc4)cc3)NC(=O)[C@H](Cc3ccc(OCC(=O)O)cc3)NC2=O)c1 [Compound 3753] ({CH2CO}-[Dab]Y(Carboxymethyl)D[Phe(3-Me)]Y(Carboxymethyl)[Bip]Y(Carboxymethyl)[Orn][dL][Dab][Cha][Val(3-OH)]EC[Dab][AEEA][AEEA][Aun]-OH; thioether N-14) | 6
5 | Cc1cccc(C[C@@H]2NC(=O)[C@H](CC(=O)O)NC(=O)[C@H](Cc3ccc(OCC(=O)O)cc3)NC(=O)[C@H](Cc3ccncc3)NC(=O)CSC[C@@H](C(=O)N[C@@H](CCN)C(=O)NCCOCCOCC(=O)NCCOCCOCC(=O)NCCCCCCCCCCCCC(=O)O)NC(=O)[C@H](CCC(=O)O)NC(=O)[C@H](C(C)C)NC(=O)[C@H](CC3CCCCC3)NC(=O)[C@H](CCN)NC(=O)[C@@H](CC(C)C)NC(=O)[C@H](CCCN)NC(=O)[C@H](Cc3ccc(C(=O)O)cc3)NC(=O)[C@H](Cc3ccc(-c4ccccc4)cc3)NC(=O)[C@H](Cc3ccc(C(=O)O)cc3)NC2=O)c1 [Compound 3754] ({CH2CO}-[4Pal]Y(Carboxymethyl)D[Phe(3-Me)][Phe(4-COOH)][Bip][Phe(4-COOH)][Orn][dL][Dab][Cha]VEC[Dab][AEEA][AEEA]-{NH(CH2)12COOH}; thioether N-14) | 250
6 | Cc1cccc(C[C@@H]2NC(=O)[C@H](CC(=O)O)NC(=O)[C@H](Cc3ccc(OCC(=O)O)cc3)NC(=O)[C@H](Cc3ccncc3)NC(=O)CSC[C@@H](C(=O)N[C@@H](CCN)C(=O)NCCOCCOCC(=O)NCCOCCOCC(=O)NCCCCCCCCCCC(=O)O)NC(=O)[C@H](CCCN)NC(=O)[C@H](C(C)(C)O)NC(=O)[C@H](CC3CCCCC3)NC(=O)[C@H](CCN)NC(=O)[C@@H](CC(C)C)NC(=O)[C@H](CCCN)NC(=O)[C@H](Cc3ccc(OCC(=O)O)cc3)NC(=O)[C@H](Cc3ccc(-c4ccccc4)cc3)NC(=O)[C@H](Cc3ccc(OCC(=O)O)cc3)NC2=O)c1 [Compound 3755] ({CH2CO}-[4Pal]Y(Carboxymethyl)D[Phe(3-Me)]Y(Carboxymethyl)[Bip]Y(Carboxymethyl)[Orn][dL][Dab][Cha][Val(3-OH)][Orn]C[Dab][AEEA][AEEA][Aun]-OH; thioether N-14) | 314
7 | Cc1cccc(C[C@@H]2NC(=O)[C@H](CC(=O)O)NC(=O)[C@H](Cc3ccc(OCC(=O)O)cc3)NC(=O)[C@H](CCN)NC(=O)CSC[C@@H](C(=O)N[C@@H](CCN)C(=O)NCCOCCOCC(=O)NCCOCCOCC(=O)NCCCCCCCCCCC(=O)O)NC(=O)[C@H](Cc3cnc[nH]3)NC(=O)[C@H](C(C)C)NC(=O)[C@H](CC3CCCCC3)NC(=O)[C@H](CCN)NC(=O)[C@@H](CC(C)C)NC(=O)[C@H](CCCN)NC(=O)[C@H](Cc3ccc(C(=O)O)cc3)NC(=O)[C@H](Cc3ccc(-c4ccccc4)cc3)NC(=O)[C@H](Cc3ccc(C(=O)O)cc3)NC2=O)c1 [Compound 3757] ({CH2CO}-[Dab]Y(Carboxymethyl)D[Phe(3-Me)][Phe(4-COOH)][Bip][Phe(4-COOH)][Orn][dL][Dab][Cha]VHC[Dab][AEEA][AEEA][Aun]-OH; thioether N-14) | 2.6
8 | Cc1cccc(C[C@@H]2NC(=O)[C@H](CC(=O)O)NC(=O)[C@H](Cc3ccc(OCC(=O)O)cc3)NC(=O)[C@H](CCN)NC(=O)CSC[C@@H](C(=O)N[C@@H](CCN)C(=O)NCCOCCOCC(=O)NCCOCCOCC(=O)NCCCCCCCCCCCCC(=O)O)NC(=O)[C@H](CCC(=O)O)NC(=O)[C@H](C(C)(C)O)NC(=O)[C@H](CC3CCCCC3)NC(=O)[C@H](CCN)NC(=O)[C@@H](CC(C)C)NC(=O)[C@H](CCCN)NC(=O)[C@H](Cc3ccc(OCC(=O)O)cc3)NC(=O)[C@H](Cc3ccc(-c4ccccc4)cc3)NC(=O)[C@H](Cc3ccc(OCC(=O)O)cc3)NC2=O)c1 [Compound 3758] ({CH2CO}-[Dab]Y(Carboxymethyl)D[Phe(3-Me)]Y(Carboxymethyl)[Bip]Y(Carboxymethyl)[Orn][dL][Dab][Cha][Val(3-OH)]EC[Dab][AEEA][AEEA]-{NH(CH2)12COOH}; thioether N-14) | 19
9 | Cc1cccc(C[C@@H]2NC(=O)[C@H](CC(=O)O)NC(=O)[C@H](Cc3ccc(OCC(=O)O)cc3)NC(=O)[C@H](CCN)NC(=O)CSC[C@@H](C(=O)N[C@@H](CCN)C(=O)NCCOCCOCC(=O)NCCOCCOCC(=O)NCCCCCCCCCCCCC(=O)O)NC(=O)[C@H](CCC(=O)O)NC(=O)[C@H](C(C)(C)O)NC(=O)[C@H](CC3CCCCC3)NC(=O)[C@H](CCN)NC(=O)[C@@H](CC(C)C)NC(=O)[C@H](CCCN)NC(=O)[C@H](Cc3ccc(C(=O)O)cc3)NC(=O)[C@H](Cc3ccc(-c4ccccc4)cc3)NC(=O)[C@H](Cc3ccc(C(=O)O)cc3)NC2=O)c1 [Compound 3759] ({CH2CO}-[Dab]Y(Carboxymethyl)D[Phe(3-Me)][Phe(4-COOH)][Bip][Phe(4-COOH)][Orn][dL][Dab][Cha][Val(3-OH)]EC[Dab][AEEA][AEEA]-{NH(CH2)12COOH}; thioether N-14) | 39.2
10 | Cc1cccc(C[C@@H]2NC(=O)[C@H](CC(=O)O)NC(=O)[C@H](Cc3ccc(OCC(=O)O)cc3)NC(=O)[C@H](CCN)NC(=O)CSC[C@@H](C(=O)N[C@@H](CCN)C(=O)NCCOCCOCC(=O)NCCOCCOCC(=O)NCCCCCCCCCCCCC(=O)O)NC(=O)[C@H](Cc3cnc[nH]3)NC(=O)[C@H](C(C)(C)O)NC(=O)[C@H](CC3CCCCC3)NC(=O)[C@H](CCN)NC(=O)[C@@H](CC(C)C)NC(=O)[C@H](CCCN)NC(=O)[C@H](Cc3ccc(OCC(=O)O)cc3)NC(=O)[C@H](Cc3ccc(-c4ccccc4)cc3)NC(=O)[C@H](Cc3ccc(OCC(=O)O)cc3)NC2=O)c1 [Compound 3760] ({CH2CO}-[Dab]Y(Carboxymethyl)D[Phe(3-Me)]Y(Carboxymethyl)[Bip]Y(Carboxymethyl)[Orn][dL][Dab][Cha][Val(3-OH)]HC[Dab][AEEA][AEEA]-{NH(CH2)12COOH}; thioether N-14) | 4.7
11 | Cc1cccc(C[C@@H]2NC(=O)[C@H](CC(=O)O)NC(=O)[C@H](Cc3ccc(OCC(=O)O)cc3)NC(=O)[C@H](CCN)NC(=O)CSC[C@@H](C(=O)N[C@@H](CCN)C(=O)NCCOCCOCC(=O)NCCOCCOCC(=O)NCCOCCOCC(=O)NCCCCCCCCCCCCCCC(=O)O)NC(=O)[C@H](Cc3c[nH]cn3)NC(=O)[C@H](C(C)(C)O)NC(=O)[C@H](CC3CCCCC3)NC(=O)[C@H](CCN)NC(=O)[C@@H](CC(C)C)NC(=O)[C@H](CCCN)NC(=O)[C@H](Cc3ccc(C(=O)O)cc3)NC(=O)[C@H](Cc3ccc(-c4ccccc4)cc3)NC(=O)[C@H](Cc3ccc(C(N)=O)cc3)NC2=O)c1 [Compound 3761] ({CH2CO}-[Dab]Y(Carboxymethyl)D[Phe(3-Me)][Phe(4-CONH2)][Bip][Phe(4-COOH)][Orn][dL][Dab][Cha][Val(3-OH)]HC[Dab][AEEA][AEEA][AEEA]-{NH(CH2)14COOH}; thioether N-14) | 36.8
